Data as given in patent US9096832B2, “Differentiation of human embryonic stem cells” (LifeScan, Inc., priority 2007, dated 2015).
Values joined by “and” are separate entries in the source; they are usually repeats but may differ in a detail not shown here. Equal entries are not always repeated.

Assays:
[1] = test system: human embryonic stem cell line H9; assay: Cells from […] differentiated on MEFs: role of Wnt-3a (real-time PCR, FACS); type: cell-based
Procedure: Cells from the human embryonic stem cell line H9 cultured on […]™ for at least five passages were seeded onto MEF feeders in ES media.
At day 3 and 5, the cultures were analyzed by real time PCR for SOX-17, SOX-7, Alpha-fetal protein (AFP), CXCR4, Brychyury (Bry), gooscecoid (GSC), HNF-3 beta, GATA4, hTERT and Oct4. AFP and SOX-7 are regarded as visceral endoderm markers while GATA4, HNF-3beta and SOX-17 represent definite endoderm markers and GSC, Bry, and CXCR4 represent markers of primitive streak. hTERT and Oct-4 are markers for self renewal and pluripotency respectively. FACS analysis was also performed at day 3 and 5.

[2] = test system: human embryonic stem cell line H9; assay: Cytokine array (RayBiotech) of cell lysates and conditioned media, Activin A +/- Wnt3a (Table VII); type: cell-based; design: Angiogenin / BDNF / BMP-4 / BMP-6 / CK beta 8-1 / Eotaxin-3 / Flt-3 Ligand / Fractalkine / GCP-2 / GDNF / GM-CSF / I-309 / IFN-gamma / IGFBP-1 / IGFBP-2 / IGFBP-4 / IL-10 / IL-13 / IL-15 / IL-1alpha / IL-1beta / IL-1ra / IL-3 / IL-5 / Leptin / MCP-1 / MIP-1-delta / NT-3 / RANTES / SCF / TGF-beta 1 / TNF-beta / Acrp30 / AgRP / AxI / bFGF: unit not given here
Procedure: At passage 54, cells were differentiated in the presence of 100 ng/mlActivinA+/−10 ng/mlWnt3a for 2 days in 0.5% FBS DMEM/F12. […]
Cell lysates were prepared from cells of each treatment group, with a mammalian cell lysis kit (Sigma-Aldrich,MO). Conditioned media from each treatment group was collected and concentrated. Cytokine array analysis was completed using Cytokine Array panels provided by RayBiotech, GA (http://www.raybiotech.com/). […] For each panel, positive and negative controls are also included.

[3] = Cell conditioned media, H9 day 5, samples 1,2
[4] = Cell lysate, H9 day 5, samples 1,2

Wnt-3a was tested, and the “role in differentiation of hES cells cultured on MEFs to definitive endoderm” value [1] was “does not appear to play a significant role”, the AFP expression ([1]; Wnt-3a added to 100 ng/ml activin A) was “increase in the expression of AFP that increases over time” and the Acrp30 [2, 3] was 2,795.71 and 2,302.99. The AgRP [2, 3] was 651.26 and 482.21, the Amphiregulin [2, 3] was 619.07 and 782.60 and the Angiogenin [2, 3] was 57,442.48 and 54,969.04. For the same substance, the Angiopoietin-2 [2, 3] was 65,959.24 and 71,664.21, the AxI [2, 3] was 610.40 and 748.34 and the BDNF [2, 3] was 770.08 and 715.86. For the same substance, the BLC [2, 3] was 337.12 and 249.80, the BMP-6 [2, 3] was 985.70 and 670.60 and the “CK beta 8-1” value [2, 3] was 42.78 and 75.44. For the same substance, the CNTF [2, 3] was 787.19 and 541.51, the EGF [2, 3] was 23,331.57 and 22,768.53 and the Eotaxin-2 [2, 3] was 2,156.21 and 1,445.14. The Eotaxin-3 [2, 3] was 2,140.81 and 1,480.35, the FGF-6 [2, 3] was 3,283.94 and 2,519.78 and the “Flt-3 Ligand” value [2, 3] was 511.67 and 792.98. For the same substance, the Fractalkine [2, 3] was 359.37 and 367.15, the GCP-2 [2, 3] was 451.78 and 362.12 and the GDNF [2, 3] was 443.22 and 509.66. The GM-CSF [2, 3] was 1,808.82 and 1,446.82, the I-309 [2, 3] was 318.30 and 288.36 and the IFN-gamma [2, 3] was 1,238.97 and 1,435.08. The IGF-I [2, 3] was 254.98 and 187.77, the IGFBP-1 [2, 3] was 227.60 and 155.91 and the IGFBP-2 [2, 3] was 42,215.53 and 43,934.33. The IGFBP-4 [2, 3] was 18,988.34 and 13,380.14, the IL-1alpha [2, 3] was 3,999.26 and 3,545.79 and the IL-1beta [2, 3] was 316.59 and 278.30. The IL-1ra [2, 3] was 354.23 and 581.75, the IL-2 [2, 3] was 758.10 and 881.84 and the IL-3 [2, 3] was 11,345.78 and 12,174.73. For the same substance, the IL-4 [2, 3] was 804.30 and 673.95, the IL-5 [2, 3] was 2,120.27 and 1,713.38 and the IL-6 [2, 3] was 9,774.82 and 9,991.93. For the same substance, the IL-10 [2, 3] was 1,625.71 and 1,129.96, the IL-13 [2, 3] was 2,522.42 and 1,807.27 and the IL-15 [2, 3] was 2,495.04 and 1,981.62. For the same substance, the IL-16 [2, 3] was 436.38 and 405.71, the LIGHT [2, 3] was 1,346.78 and 1,108.17 and the Leptin [2, 3] was 7,238.71 and 4,886.99. The M-CSF [2, 3] was 740.98 and 684.01, the MCP-1 [2, 3] was 2,015.89 and 1,567.53 and the MCP-2 [2, 3] was 694.78 and 694.07. The MCP-3 [2, 3] was 701.62 and 583.42, the MCP-4 [2, 3] was 231.02 and 276.62 and the MIP-1-delta [2, 3] was 474.02 and 291.71. The MIP-3-alpha [2, 3] was 208.78 and 184.41, the NAP-2 [2, 3] was 371.35 and 343.68 and the NT-3 [2, 3] was 571.57 and 427.51. The PARC [2, 3] was 474.02 and 363.80, the PDGF-BB [2, 3] was 2,635.37 and 2,005.09 and the RANTES [2, 3] was 682.80 and 855.01. For the same substance, the SCF [2, 3] was 1,394.69 and 2,155.98, the SDF-1 [2, 3] was 326.85 and 616.95 and the “TGF-beta 1” value [2, 3] was 1,827.65 and 1,849.18. The “TGF-beta 3” value [2, 3] was 294.34 and 343.68, the TNF-alpha [2, 3] was 2,609.70 and 2,167.71 and the TNF-beta [2, 3] was 1,701.01 and 1,637.94. The bFGF [2, 3] was 1,226.99 and 1,241.09, the Acrp30 [2, 4] was 601.61 and 690.66 and the AgRP [2, 4] was 77.82 and 89.00. The Angiogenin [2, 4] was 619.40 and 750.85, the AxI [2, 4] was 88.59 and 139.03 and the BDNF [2, 4] was 763.51 and 951.45. The BLC [2, 4] was 742.24 and 476.36, the BMP-4 [2, 4] was 348.44 and 304.48 and the BMP-6 [2, 4] was 571.23 and 641.05. The “CK beta 8-1” value [2, 4] was 22.48 and 21.54, the CNTF [2, 4] was 1,382.51 and 1,060.82 and the EGF [2, 4] was 742.24 and 984.39. The Eotaxin [2, 4] was 301.87 and 253.80, the Eotaxin-3 [2, 4] was 934.12 and 847.56 and the “Flt-3 Ligand” value [2, 4] was 857.45 and 795.19. For the same substance, the Fractalkine [2, 4] was 792.02 and 456.51, the GCP-2 [2, 4] was 593.71 and 538.86 and the GDNF [2, 4] was 436.75 and 444.68. The GM-CSF [2, 4] was 1,343.17 and 1,161.75, the I-309 [2, 4] was 708.52 and 743.25 and the IFN-gamma [2, 4] was 1,202.67 and 1,037.60. For the same substance, the IGFBP-1 [2, 4] was 59.41 and 85.73, the IGFBP-2 [2, 4] was 2,671.90 and 2,414.72 and the IGFBP-4 [2, 4] was 4,459.85 and 4,173.19. The IL-1alpha [2, 4] was 1,612.93 and 1,421.89, the IL-1beta [2, 4] was 352.05 and 312.08 and the IL-1ra [2, 4] was 302.68 and 198.48. The IL-3 [2, 4] was 2,119.94 and 1,497.48, the IL-4 [2, 4] was 625.42 and 638.94 and the IL-5 [2, 4] was 1,245.23 and 1,167.24. For the same substance, the IL-10 [2, 4] was 1,222.75 and 1,096.30, the IL-13 [2, 4] was 1,486.89 and 1,407.96 and the IL-15 [2, 4] was 1,677.16 and 1,601.79. For the same substance, the IL-16 [2, 4] was 651.11 and 668.50, the Leptin [2, 4] was 1,234.39 and 1,091.65 and the M-CSF [2, 4] was 852.63 and 867.83. For the same substance, the MCP-1 [2, 4] was 1,022.03 and 1,076.03, the MCP-3 [2, 4] was 1,184.61 and 1,255.50 and the MCP-4 [2, 4] was 1,380.51 and 1,606.86. For the same substance, the MDC [2, 4] was 269.36 and 280.41, the MIG [2, 4] was 1,113.16 and 1,137.26 and the MIP-1-delta [2, 4] was 491.75 and 322.22. The MIP-3-alpha [2, 4] was 1,602.09 and 1,399.93, the NT-3 [2, 4] was 316.73 and 275.76 and the PARC [2, 4] was 352.85 and 353.04. The PDGF-BB [2, 4] was 517.84 and 597.56, the RANTES [2, 4] was 724.98 and 637.25 and the SCF [2, 4] was 1,152.50 and 1,021.13. For the same substance, the TARC [2, 4] was 372.93 and 343.33, the “TGF-beta 1” value [2, 4] was 1,426.67 and 1,240.30 and the TNF-alpha [2, 4] was 2,851.74 and 1,285.91. For the same substance, the TNF-beta [2, 4] was 1,049.33 and 1,026.62, the bFGF [2, 4] was 11,722.95 and 21,398.52 and the “Angiogenin, IGFBP-1 and EGF” value ([2]; cell conditioned media) was “Noticeable upregulation”. The “proteins including IGFBP-1, TGFbeta-1 and TGFbeta-3” value ([2]; cell lysates) was “upregulated”.
